Source: patent publication US20230016424A1, “HYBRID AMIDE DERIVATIVES OF AMPHOTERICIN B” (The Board of Trustees of the University of Illinois, priority 2019, published 2023)
≈ marks a conversion by molar mass, not a printed value. Where “and” joins values, the source holds several entries; their conditions need not be identical. Equal entries are not always repeated.

Experiments:
A. flavus = assay: MIC against moulds; type: cell-based; conditions: 6 isolates
A. calldoustus = assay: MIC against moulds; type: cell-based; conditions: 6 isolates
A. lentulus = assay: MIC against moulds; type: cell-based; conditions: 6 isolates
Mucor janssenii = assay: MIC against moulds; type: cell-based; conditions: 6 isolates
Mucor velutinosus = assay: MIC against moulds; type: cell-based; conditions: 6 isolates
Histoplasma capsulatum = assay: microbe, parasite or virus in culture; type: cell-based
Coccidioides posadasii = assay: microbe, parasite or virus in culture; type: cell-based
Fusarium oxysporum = assay: MIC against moulds; type: cell-based; conditions: 6 isolates
Blastomyces dermatitidis = assay: MIC against moulds; type: cell-based; conditions: 5 isolates
Fonsecaea sp. = assay: MIC against moulds; type: cell-based; conditions: 6 isolates
Talaromyces marneffei = assay: MIC against moulds; type: cell-based; conditions: 6 isolates
Apophysomyces sp. = assay: MIC against moulds; type: cell-based; conditions: 3 isolates
Saksenaea sp. = assay: MIC against moulds; type: cell-based; conditions: 4 isolates
Different Moulds = assay: Average MIC against different moulds; type: cell-based; parameters: MICavg moulds (159 strains): unit not given beside the values; conditions: for MIC: 157 isolates
Candida parapsilosis = assay: MIC against yeasts; type: cell-based; conditions: 8 isolates
Cryptococcus neoformans = assay: MIC against yeasts; type: cell-based; conditions: 10 isolates
Different Yeasts = assay: Average MIC against different yeasts; type: cell-based; parameters: MICavg yeast (46 strains): unit not given beside the values; conditions: for MIC: 46 isolates
Sporothrix schenckii = assay: MIC against rare moulds resistant to AmB; type: cell-based; conditions: 6 isolates
[1] = system: Purpureocillium lilacinum; assay: MIC against rare moulds resistant to AmB; type: cell-based; conditions: 6 isolates
CYP2C9 = CYP2C9 (Homo sapiens, UniProt P11712); assay: CYP Inhibition; conditions: for P450 2C9 % Inhibition: 10 um, human liver microsome
Experimental: (§1) The working solutions of the test compounds and the standard inhibitors were prepared in DMSO (100× final concentration). 20 ul of substrate solution (5 in 1 cocktail) was added to the wells followed by 2 ul test compound solution was added. 158 ul of human liver microsome (HLM) was added to all the wells of the incubated plate and warmed to 37° C. for 10 mins. 20 ul of NADPH cofactor solution was then added to all the wells of incubated plate and incubated at 37° C. for 10 mins. At the time point the reaction was quenched by adding 400 uL of cold stop solution. The samples were centrifuged at 4000 rpm for 20 mins to precipitate protein. 100 ul supernatant was diluted with 100 ul of ultra pure water and analyzed using LCMS.

CYP2D6 = CYP2D6 (Homo sapiens, UniProt P10635); assay: CYP Inhibition; conditions: for P450 2D6 % Inhibition: 10 um, human liver microsome
Experimental: as §1

CYP3A4 = CYP3A4 (Homo sapiens, UniProt P08684); assay: CYP Inhibition; conditions: for P450 3A4 % Inhibition: 10 um, human liver microsome
Experimental: as §1

human erythrocytes = assay: MHC hemolysis assay; type: cell-based
Experimental: MHC (FIG. 21B): The protocol for the hemolysis assay was adapted from the report of Paquet and coworkers (Chem. Eur. J. 2008, 14, 2465-2481). Whole human blood (sodium heparin) was purchased from Bioreclamation LLC (Westbury, N.Y.) and stored at 4° C. and used within two days of receipt. To a 2.0 mL eppendorf tube, 1 mL of whole human blood was added and centrifuged at 10,000 g for 2 minutes. The supernatant was removed and the erythrocyte pellet was washed with 1 mL of sterile saline and centrifuged at 10,000 g for 2 minutes. The saline wash was repeated for a total of three washes. The erythrocyte pellet was suspended in 1 mL of RBC buffer (10 mM NaH2PO4, 150 mM NaCl, 1 mM MgCl2, pH 7.4) to form the erythrocyte stock suspension.
Compounds were prepared as >15 mM stock solutions in DMSO and serially diluted to the following concentrations with DMSO: 7689, 5126, 2563, 2050, 1538, 1025, 769, 513, 384, 256, 205, 154, 103, 77, 51, 26 μM. To a 0.2 mL PCR tube, 24 μL of RBC buffer and 1 μL of compound stock solution were added, which gave final concentrations of […]. Positive and negative controls were prepared by adding 1 μL of DMSO to MilliQ water or RBC buffer, respectively to 0.2 mL PCR tube. To each PCR tube, 0.63 μL of the erythrocyte stock suspension was added and mixed by inversion. The samples were incubated at 37° C. for 2 hours. The samples were mixed by inversion and centrifuged at 10,000 g for 2 minutes. 15 μL of the supernatant from each sample was added to a 384-well place. Absorbances were read at 540 nm using a Biotek H1 Synergy Hybrid Reader (Wanooski, Vt.). Experiments were performed in triplicate and the reported MHC represents an average of three experiments.

[2] = UV-Vis sterol binding assay
Experimental: However, an alternative method was developed for reproducible formation of homogenous AmB and C2′epiAmB sterol sponge aggregates in vitro. Using these preparations, a quantitative UV-Vis and Principle Component (PCA) based assay for determining the apparent KDs for the binding of AmB and C2′epiAmB to ergosterol and cholesterol (FIGS. 5A-5D) was developed.
UV-Vis Binding Assay (FIG. 21A): The protocol for the sterol binding assay (UV-Vis) was developed in our lab. Compounds were dissolved in DMSO at a final concentration of 1 mM. Sterol were first dissolved in CHCl3 (>200 mM) and then diluted to 1 mM concentration with DMSO. To synthesize the complex 1 ul of compound solution was taken in a clean eppendorf tube (2 ml) and sterol solution (volume depends on the stoichiometry) was added to it and the volume was made up to 20 ul with DMSO. 0.98 ml of PBS buffer was added to the Eppendorf tube and mixed properly. The absorbance of the solution was measured after 30 mins of incubation.

[3] = human, human liver microsomes, probe 5 in 1 substrate cocktail (substrates not named)
[4] = hemolysis, human erythrocytes, 37° C. 2 hours

CYP2C9, sequence (P11712 whole entry): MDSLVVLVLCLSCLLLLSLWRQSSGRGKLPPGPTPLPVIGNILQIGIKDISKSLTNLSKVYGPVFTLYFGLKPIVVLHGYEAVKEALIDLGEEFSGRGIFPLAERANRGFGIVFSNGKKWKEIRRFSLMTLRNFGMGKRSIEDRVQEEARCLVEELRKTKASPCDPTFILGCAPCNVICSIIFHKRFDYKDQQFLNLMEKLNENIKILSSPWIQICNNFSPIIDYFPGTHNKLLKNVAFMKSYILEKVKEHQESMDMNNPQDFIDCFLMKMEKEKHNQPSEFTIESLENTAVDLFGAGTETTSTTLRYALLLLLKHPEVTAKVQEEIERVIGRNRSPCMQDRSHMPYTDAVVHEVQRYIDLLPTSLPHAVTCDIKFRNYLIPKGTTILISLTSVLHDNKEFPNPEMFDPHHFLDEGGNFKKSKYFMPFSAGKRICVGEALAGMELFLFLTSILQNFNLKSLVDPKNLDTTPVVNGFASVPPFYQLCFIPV
CYP3A4, sequence (P08684 whole entry): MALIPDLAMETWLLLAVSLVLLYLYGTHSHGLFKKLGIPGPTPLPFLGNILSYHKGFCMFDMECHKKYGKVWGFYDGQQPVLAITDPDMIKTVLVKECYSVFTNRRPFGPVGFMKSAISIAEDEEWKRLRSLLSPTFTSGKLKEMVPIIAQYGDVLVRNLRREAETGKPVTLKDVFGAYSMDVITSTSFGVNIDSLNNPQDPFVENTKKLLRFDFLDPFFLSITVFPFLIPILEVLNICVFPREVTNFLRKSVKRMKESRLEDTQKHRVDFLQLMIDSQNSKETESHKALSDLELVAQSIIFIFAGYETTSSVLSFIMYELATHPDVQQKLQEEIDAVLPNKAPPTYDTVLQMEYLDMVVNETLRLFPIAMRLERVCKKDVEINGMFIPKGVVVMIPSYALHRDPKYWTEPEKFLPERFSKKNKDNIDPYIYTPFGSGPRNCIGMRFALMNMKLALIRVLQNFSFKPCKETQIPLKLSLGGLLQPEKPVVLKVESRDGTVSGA
CYP2D6, sequence (P10635 whole entry): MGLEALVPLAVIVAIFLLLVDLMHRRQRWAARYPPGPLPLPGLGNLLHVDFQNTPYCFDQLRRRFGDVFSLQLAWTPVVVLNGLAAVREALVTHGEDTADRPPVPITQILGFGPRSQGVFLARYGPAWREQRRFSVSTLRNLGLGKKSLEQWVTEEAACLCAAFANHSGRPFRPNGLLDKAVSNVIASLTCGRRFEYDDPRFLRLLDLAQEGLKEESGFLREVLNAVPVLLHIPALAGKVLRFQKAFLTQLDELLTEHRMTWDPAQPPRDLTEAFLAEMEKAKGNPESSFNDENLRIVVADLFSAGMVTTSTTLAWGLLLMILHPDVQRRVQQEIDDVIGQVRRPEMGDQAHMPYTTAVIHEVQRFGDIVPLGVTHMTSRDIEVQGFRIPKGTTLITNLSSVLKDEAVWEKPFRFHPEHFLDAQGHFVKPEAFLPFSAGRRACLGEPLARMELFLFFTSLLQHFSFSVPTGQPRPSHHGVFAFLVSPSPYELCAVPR

Row | Structure (SMILES) | MIC (A. calldoustus) [µM] | MIC (Apophysomyces sp.) [µM] | MIC (Saksenaea sp.) [µM] | MICavg moulds (159 strains) (Different Moulds) | MIC (Different Moulds) [µM] | MICavg yeast (46 strains) (Different Yeasts) | MIC (Different Yeasts) [µM] | MHC (human erythrocytes; [4]) [µM] | MHC (human erythrocytes; summary table, unit not given) | Binds Cholesterol [2] | Cholesterol Binding [2] | MIC (A. flavus) [µM] | MIC (A. lentulus) [µM] | MIC (Mucor janssenii) [µM] | MIC (Mucor velutinosus) [µM] | MIC Histoplasma capsulatum (Histoplasma capsulatum) [µM] | MIC Coccidioides posadasii (Coccidioides posadasii) [µM] | MIC (Fusarium oxysporum) [µM] | MIC (Blastomyces dermatitidis) [µM] | MIC (Fonsecaea sp.) [µM] | further results
1 | C[C@@H]1[C@H](O)[C@@H](C)/C=C/C=C/C=C/C=C/C=C/C=C/C=C/[C@H](OC2O[C@H](C)[C@@H](O)[C@H](N)[C@@H]2O)C[C@@H]2O[C@](O)(C[C@@H](O)C[C@@H](O)[C@H](O)CC[C@@H](O)C[C@@H](O)CC(=O)O[C@H]1C)C[C@H](O)[C@H]2C(=O)O (stereo partly shown) [AmB, Amphotericin B] | 1.5 (≈ 1.39 µg/mL) | 0.75 (≈ 0.693 µg/mL) | 0.06 (≈ 0.0554 µg/mL) | 0.9 | 0.9 (≈ 0.832 µg/mL) | 0.9 | 0.9 (≈ 0.832 µg/mL) | 8.4 | 8.4 | Yes | Yes | – | – | – | – | – | – | – | – | – | MIC (A. flavus; Aspergillus flavus): 1.16 µM (≈ 1.07 µg/mL); MIC (A. lentulus; Aspergillus lentulus): 3.75 µM (≈ 3.47 µg/mL); MIC (Mucor janssenii; Mucor janssenii): 0.06 µM (≈ 0.0554 µg/mL); MIC (Mucor velutinosus; Mucor velutinosus): 0.08 µM (≈ 0.0739 µg/mL); MIC (Histoplasma capsulatum; Histoplasma capsulatum, read-out: MIC Histoplasma capsulatum): 0.06 µM (≈ 0.0554 µg/mL); MIC (Coccidioides posadasii; Coccidioides posadasii, read-out: MIC Coccidioides posadasii): 0.06 µM (≈ 0.0554 µg/mL); MIC (Fusarium oxysporum; Fusarium oxysporum): 1.5 µM (≈ 1.39 µg/mL); MIC (Blastomyces dermatitidis; Blastomyces dermatitidis): < 0.03 µM; MIC (Fonsecaea sp.; Fonsecaea): < 0.03 µM; MIC (Talaromyces marneffei; Talaromyces marneffei): 0.09 µM (≈ 0.0832 µg/mL); MIC (Candida parapsilosis; Lodderomyces parapsilosis): 1.1 µM (≈ 1.02 µg/mL); MIC (Cryptococcus neoformans; Cryptococcus neoformans): 0.55 µM (≈ 0.508 µg/mL); MIC (Sporothrix schenckii; Sporothrix schenckii): 4 µM (≈ 3.7 µg/mL); MIC ([1]; Purpureocillium lilacinum): > 16 µM; inhibition at 10 min, 10 µM (CYP2C9; human, human liver microsomes, probe 5 in 1 substrate cocktail): 4.1%; inhibition at 10 min, 10 µM (CYP2D6; [3]): 2.3%; inhibition at 10 min, 10 µM (CYP3A4; [3]): 8.1%
2 | CC1C=CC=CC=CC=CC=CC=CC=CC(OC2OC(C)C(O)C(N)C2O)CC2OC(O)(CC(O)CC(O)C(O)CCC(O)CC(O)CC(=O)OC(C)C(C)C1O)CC(O)C2C(=O)NCCO (stereo not shown) [Compound BA] | 1.67 (≈ 1.62 µg/mL) | 16 (≈ 15.5 µg/mL) | 0.34 (≈ 0.329 µg/mL) | 2.3 | 2.3 (≈ 2.22 µg/mL) | 2.5 | 2.5 (≈ 2.42 µg/mL) | >500 | >500 | No | No | 2.67 (≈ 2.58 µg/mL) | 3 (≈ 2.9 µg/mL) | 0.92 (≈ 0.89 µg/mL) | 1.25 (≈ 1.21 µg/mL) | 0.06 (≈ 0.058 µg/mL) | 0.46 (≈ 0.445 µg/mL) | 11.3 (≈ 10.9 µg/mL) | 0.6 (≈ 0.58 µg/mL) | 0.06 (≈ 0.058 µg/mL) | MIC (Talaromyces marneffei): 0.15 µM (≈ 0.145 µg/mL); MIC (Candida parapsilosis): 2.5 µM (≈ 2.42 µg/mL); MIC (Cryptococcus neoformans): 2 µM (≈ 1.93 µg/mL); MIC (Sporothrix schenckii): 6 µM (≈ 5.8 µg/mL); MIC [1]: >16 µM; P450 2C9 % Inhibition (CYP2C9): 18.7%; P450 2D6 % Inhibition (CYP2D6): 2.74% and 2.77%; P450 3A4 % Inhibition (CYP3A4): 15.7%
3 | CC1C=CC=CC=CC=CC=CC=CC=CC(OC2OC(C)C(O)C(N)C2O)CC2OC(O)(CC(O)CC(O)C(O)CCC(O)CC(O)CC(=O)OC(C)C(C)C1O)CC(O)C2C(=O)NCCF (stereo not shown) [Compound BM] | 1.5 (≈ 1.45 µg/mL) | 8.3 (≈ 8.04 µg/mL) | 0.34 (≈ 0.33 µg/mL) | 2.2 | 2.3 (≈ 2.23 µg/mL) | 2.3 | 2.3 (≈ 2.23 µg/mL) | – | >100 | No | – | 2.5 (≈ 2.42 µg/mL) | 2.83 (≈ 2.74 µg/mL) | 0.92 (≈ 0.892 µg/mL) | 0.92 (≈ 0.892 µg/mL) | 0.06 (≈ 0.0581 µg/mL) | 0.42 (≈ 0.407 µg/mL) | 9.3 (≈ 9.01 µg/mL) | 0.5 (≈ 0.485 µg/mL) | <0.03 | MIC (Talaromyces marneffei): 0.2 µM (≈ 0.194 µg/mL); MIC (Candida parapsilosis): 2.4 µM (≈ 2.33 µg/mL); MIC (Cryptococcus neoformans): 2 µM (≈ 1.94 µg/mL); MIC (Sporothrix schenckii): 6.67 µM (≈ 6.46 µg/mL); MIC [1]: >16 µM; P450 2C9 % Inhibition (CYP2C9): 89.1%; P450 2D6 % Inhibition (CYP2D6): 2.1%; P450 3A4 % Inhibition (CYP3A4): 12.4%
